Holding throughout (format): physicochemical
The nature of data set [1]: Retesting at radiotracer expiry: visual inspection (appearance). The note with it: n = 3, specification: clear colorless solution, no visible particulate matter. The source says: Using remote handling equipment and appropriate radiation shielding (leaded glass), the vial containing the [^18F]DCFPyL product was visually inspected under bright light. The product met this acceptance specification if it was clear and colorless with no evidence of foreign matter.

Data set [2] in a line: Retesting at radiotracer expiry: radiochemical purity (HPLC) after storage under ambient conditions. The note with it: for Expiry radiochemical purity, %: ambient storage. The procedure:
Using the same HPLC system described for the radiochemical identity test, an appropriate volume (50 μL) of [^18F]DCFPyL was injected at a quantity injected that avoids uncorrected dead-time loss (for main peak) in the radioactive detection system. The percent radiochemical purity of [^18F]DCFPyL was determined by dividing the radioactivity associated with the [^18F]DCFPyL peak by total activity assayed in the chromatogram multiplied by 100. The product met this acceptance specification if the radiochemical purity was greater than or equal to 95%. A sample QC chromatogram is shown in FIG. 7 (DCFPyL−RT=7.6 min., k′=8.7).

Data set [3] in a line: Retesting at radiotracer expiry: pH by indicator paper. The note with it: specification 4.5-8.5; for pH, expiry: average n = 3, 360 min after EOS. From the text: A drop of the [^18F]DCFPyL final product matrix was applied to pH indicator paper (ColorPhast-Indicator strip—pH 2-9; sensitivity of 0.3 to 0.5 units, EMD Chemicals Inc., Gibbstown, N.J.). The strip color was matched to an indicator chart. The product met this acceptance specification if the pH was between 4.5 and 8.5.

Where [4] appears, read: RFM synthesis (head prints REM).
[5] abbreviates: large-scale RFM batch, 4.5 GBq/mL (122 mCi/mL), added sodium ascorbate, 99.7% at EOS.

Consider `O=C(O)CC[C@H](NC(=O)N[C@@H](CCCCNC(=O)c1ccc([18F])nc1)C(=O)O)C(=O)O` [[^18F]DCFPyL, 2-(3-{1-carboxy-5-[(6-[^18F]fluoro-pyridine-3-carbonyl)-amino]-pentyl}-ureido)-pentanedioic acid], for which the “Appearance, 360 min after EOS” value in data set [1] (ELIXYS synthesis) and in data set [1] (setting [4]) was “Conforms” throughout. In addition, the “Appearance, 240 min after EOS” value in data set [1] (original synthesis) was “Conforms”. The “Expiry radiochemical purity, %” value turned out to be 100% in data set [2] (ELIXYS synthesis, average n = 3, expiry 360 min after EOS); 100% in data set [2] (RFM synthesis (head prints REM), average n = 3, expiry 360 min after EOS); 100% in data set [2] (original first-in-human synthesis, average n = 3, expiry 240 min after EOS). Besides, the “QC acceptance specifications at the 6-hour expiry” value in data set [2] (highest product yield validation run, 1.6 GBq/mL (44 mCi/mL)) is listed as “meet all QC acceptance specifications”. For the same compound, in data set [2] (setting [5]), the “radiochemical purity 3 hours post EOS” value was 98.8%. Further, in data set [2] (setting [5]), the “radiochemical purity 4 hours post EOS” value worked out at 98.5%. The “radiochemical purity 6 hours post EOS” value in data set [2] (setting [5]) was 98.2%. The “radiochemical purity at the 6-hour expiry” value in data set [2] (large-scale RFM batch, 5.7 GBq/mL (153 mCi/mL), no sodium ascorbate, 97.6% at EOS) was determined as 51.1%. Also, the “pH, expiry” value in data set [3] (ELIXYS synthesis) and in data set [3] (setting [4]) was 5 throughout. In data set [3] (original synthesis, average n = 3, second row headed pH, initial, beside pH, expiry), the “pH, initial” value came out at 5.

For the origin of these results see US10947197B2, “Synthesis of the radiolabeled prostate-specific membrane antigen (PSMA) inhibitor [18F]DCFPyL” (The Johns Hopkins University, priority 2016, dated 2021).
